The values below are quoted from earlier work in publication PMC5979345, “Identification of an ACE-Inhibitory Peptide from Walnut Protein and Its Evaluation of the Inhibitory Mechanism” (International Journal of Molecular Sciences, 2018).

In series [1] the test system is ACE. The note with it: identified from Stichopus horrens. The method, then:
To further evaluate the active mechanism of the novel ACEI peptide, the inhibition pattern of the peptide, EPNGLLLPQY, against ACE was investigated by the Line weaver-Burk plot analysis method. […] When the EPNGLLLPQY was added to the r ...

Series [2] relates to ACE. The note with it: from walnut protein digested by neutral proteinase As1.398, 45 °C, 5 h, pH 7.0. As for the experimental part: In the present study, the peptide EPNGLLLPQY was identified from the hydrolysate of walnut protein digested by […]. Moreover, there were several reports related to the peptides from walnut protein hydrolysates with ACE-inhibitory activity.

In the case of “EVSQGRP [food-derived peptide identified from Stichopus horrens]”, the Inhibition pattern entry with ACE [1] is listed as “mixed-type of inhibition”.
For the substance LPGRPPIKPWPL, the “ACE-inhibitory activity (in words)” value in the series on ACE [2] is “ACE-inhibitory peptides”.
Take “SAAVGSP [food-derived peptide identified from Stichopus horrens]”: the Inhibition pattern entry in the series with ACE [1] is “mixed-type of inhibition”.
In the case of “VSRHFASYAN [food-derived peptide identified from Stichopus horrens]”, the Inhibition pattern entry with ACE [1] is given as “mixed-type of inhibition”.
For WPERPPQIP, the “ACE-inhibitory activity (in words)” value in the series with ACE [2] is given as “ACE-inhibitory peptides”.
